Assay results from patent US5321041A, “Diphenylpyrrolylfuran derivatives” (Nihon Iyakuhin Kogyo Co., Ltd., priority 1992, dated 1994).
Like-named read-outs stand apart in the source and are kept apart here.

Legend:
5-lipoxygenase = target: T1, 5-lipoxygenase (Cavia porcellus, UniProt A0A286X958); assay: Inhibitory activity on 5-lipoxygenase; assay type: biochemical, guinea pigs; conditions: 5-HETE generation, 20 μM 14C-arachidonic acid, pH 7.4, 37° C., 10 minutes
T1 construct: crude enzyme fraction prepared from peritoneal exudated cells of guinea pigs; endogenous in cells; host or cells: guinea pig peritoneal exudate cells (induced by intraperitoneal casein), crude enzyme fraction
T1 sequence (A0A286X958 1-674): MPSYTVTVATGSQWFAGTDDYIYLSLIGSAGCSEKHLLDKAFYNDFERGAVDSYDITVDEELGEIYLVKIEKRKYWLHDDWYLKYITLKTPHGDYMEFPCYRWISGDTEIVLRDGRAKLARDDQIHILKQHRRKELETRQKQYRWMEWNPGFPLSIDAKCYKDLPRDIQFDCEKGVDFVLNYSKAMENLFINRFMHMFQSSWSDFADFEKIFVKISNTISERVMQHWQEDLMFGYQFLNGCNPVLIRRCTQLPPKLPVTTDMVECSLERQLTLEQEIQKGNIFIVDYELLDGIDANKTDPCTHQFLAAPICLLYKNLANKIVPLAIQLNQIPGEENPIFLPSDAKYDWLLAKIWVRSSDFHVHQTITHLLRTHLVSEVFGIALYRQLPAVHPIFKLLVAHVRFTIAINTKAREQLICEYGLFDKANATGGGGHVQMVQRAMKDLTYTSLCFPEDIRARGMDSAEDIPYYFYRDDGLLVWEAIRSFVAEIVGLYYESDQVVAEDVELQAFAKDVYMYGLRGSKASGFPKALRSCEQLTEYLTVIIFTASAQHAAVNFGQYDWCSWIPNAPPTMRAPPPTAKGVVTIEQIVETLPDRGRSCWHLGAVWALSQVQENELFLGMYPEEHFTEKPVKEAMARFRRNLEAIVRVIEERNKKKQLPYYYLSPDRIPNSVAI
Description: EXPERIMENT 2: INHIBITORY ACTIVITY ON 5-LIPOXYGENASE
5-Lipoxygenase activity was determined according to the method described by Ochi et al., J. Biol. Chem.,258, p. 5754, 1983 using a crude enzyme fraction prepared from peritoneal exudated cells of guinea pigs which were induced by intraperitoneal injection of 2% case in solution. A solution of a test drug was mixed with a reaction solution (2mM ATP, 1 mM glutathione,and the enzyme fraction in 50 mM phosphate buffer, PH 7.4) and the mixture was pre-incubated at 37° C. for 5 minutes. Calcium chloride (1 mM) and 20 μM^14 C-arachidonic acid were added to the mixture, and then the mixture was subjected to a reaction at 37° C. for 10 minutes. After the completion of the reaction, the product was immediately extracted, dissolved in chloroform/methanol (2:1), and developed by thin-layer chromatography. Radioactivity of the 5-hydroxyeicosatetraenoic acid (5-HETE) fraction was measured using a liquid scintillation counter. Inhibitory rate of each drug-treated group against 5-HETE generation was obtained in comparison with the solvent-treated control, and IC50 was calculated according to the probit method.

ddY mice = assay: Acute toxicity; assay type: in vivo; conditions: mouse, oral, 600 mg/kg, observed for 2 weeks
Source text: EXPERIMENT 9: ACUTE TOXICITY

[1] = tested on: auricle edema induced by oxazolone; assay: Effect on auricle edema induced by oxazolone (delayed allergy); assay type: in vivo, ICR mice; conditions: mouse, oral, 10 mg/kg × 2 (30 minutes before, 6 hours after), 24 hours
Description: EXPERIMENT 6: EFFECT ON AURICLE EDEMA INDUCED BY OXAZOLONE (DELAYED ALLERGY)
[…]. The mice were sensitized by the application of 0.1 ml of 0.5% oxazolone in ethanol to shaven abdominal skin. Five days later, inflammation was induced by applying 10 μl of 0.5% oxazolone in acetone to front and back surfaces Of the right auricle. After 24 hours, the thicknesses of the left and right auricles were measured by a dial gauge, and the rate of edema of the right auricle was calculated in comparison with the left auricle (normal). A test drug was suspended in 0.5% CMC--Na and orally administered twice to each mouse , i.e., 30 minutes before and 6 hours after the inflammation-inducing treatment. Inhibitory rate of each drug-treated group against edema was calculated in comparison with the solvent-treated control.

[2] = tested on: paw edema induced by carageenin; assay: Inhibitory activity on paw edema induced by carageenin; assay type: in vivo, Wistar rats; conditions: rat, oral, 10 mg/kg, 3 hours after carageenin
Description: EXPERIMENT 4: INHIBITORY ACTIVITY ON PAW EDEMA INDUCED BY CARAGEENIN
Wistar rats (body weight: 110-130 g) starved overnight were orally administered with a test drug suspended in 0.5% CMC-Na, and after one hour, 0.1 ml of 1% carageenin solution (picnin-A, Zushi Kagaku) was subcutaneously injected into the right hind leg paw of each rat. Three hours later, the volume of the paw was determined by means of a plethysmometer (Model 7150, Ugo Basile Co.,Ltd.) and the rate of edema was evaluated in comparison with the volume of the paw before the carageenin injection as 100%. Inhibitory rate of each drug-treated group against edema formation was calculated in comparison with the solvent-treated control.

[3] = tested on: platelet aggregation (platelet rich plasma); assay: Inhibitory activity on platelet aggregation; assay type: cell-based, Japanese native white domestic rabbits; conditions: Oryctolagus cuniculus, rabbit PRP, 37° C.
Description: EXPERIMENT 8: INHIBITORY ACTIVITY ON PLATELET AGGREGATION
Blood of Japanese native white domestic rabbits was taken into a plastic centrifugal tube added with 1/10 in volume of 3.8% sodium citrate solution, and then, platelet rich plasma (PRP) containing 5 to 6×10^8 /ml platelets was obtained by centrifugation for 10 minutes. under 120×G. To 450 μl of the PRP, 25 μl of a solution containing the test drug (Compound 109) dissolved at a desired concentration was added.

## CCc1ccc(-c2cc(-c3ccc(OC)cc3)c(-c3ccc(OC)cc3)o2)n1CC(=O)O [Compound 109, 2,3-di-(4-methoxyphenyl)-5-(1-carboxymethyl-5-ethyl-2-pyrrolyl)furan]
5-lipoxygenase
  IC50: 850 nM
ddY mice
  Dead Mice/Total Mice: 0/5
[1]
  Inhibition on Edema (%): 46.8%
[2]
  Inhibition on Edema (%): 49.5%
[3]; arachidonic acid (250 μM), read-out: IC50 against platelet aggregation induced by arachidonic acid
  IC50: 1500 nM
[3]; collagen (5 μg/ml), read-out: IC50 against platelet aggregation induced by collagen
  IC50: 13300 nM
